What was measured:
[1] = system: ragweed; assay: Test C pre-/postemergence herbicide test; assay type: in vivo, Ambrosia elatior
Method in brief: (§1)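 Response scores range from 0, meaning no effect, to 100, meaning complete control, assigned visually by comparison with controls roughly two weeks (13 to 15 days) after spraying. Applications were made preemergence to seeded loam–sand soil and postemergence to 1- to 4-leaf plants.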

[2] = system: morningglory; assay: Test C pre-/postemergence herbicide test; assay type: in vivo, Ipomoea coccinea
Method in brief: as §1

[3] = system: corn; assay: Test A pre-/postemergence herbicide test; assay type: in vivo, Zea mays
Method in brief: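 Scoring was visual, relative to untreated controls, on a 0–100 scale after about 10 greenhouse days. Preemergence treatment used a directed soil spray over seeded loam/sand; postemergence treatment targeted one- to two-leaf plants of 2–10 cm.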

[4] = system: oat, wild; assay: Test C pre-/postemergence herbicide test; assay type: in vivo, Avena fatua
Method in brief: as §1

[5] = system: lambsquarters; assay: Test C pre-/postemergence herbicide test; assay type: in vivo, Chenopodium album
Method in brief: as §1

[6] = system: sedge, umbrella; assay: Test B flooded paddy test; assay type: in vivo, Cyperus difformis; settings: 250 g ai/ha, Flood; scale of 0 to 100 where 0 is no effect and 100 is complete control
Method in brief: (§2)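 First, plants reach the 2-leaf stage; next, pots are flooded to 3 cm and compound is delivered into the water; finally, after 13 to 15 greenhouse days at constant depth, injury is graded visually from 0 to 100 against controls.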

[7] = system: johnsongrass; assay: Test C pre-/postemergence herbicide test; assay type: in vivo, Sorghum halepense
Method in brief: as §1

[8] = system: soybean; assay: Test C pre-/postemergence herbicide test; assay type: in vivo, Glycine max
Method in brief: as §1

[9] = system: rice; assay: Test B flooded paddy test; assay type: in vivo, Oryza sativa; settings: 250 g ai/ha, Flood; scale of 0 to 100 where 0 is no effect and 100 is complete control
Method in brief: as §2

[10] = system: barnyardgrass; assay: Test C pre-/postemergence herbicide test; assay type: in vivo, Echinochloa crus-galli
Method in brief: as §1

[11] = system: waterhemp; assay: Test C pre-/postemergence herbicide test; assay type: in vivo, Amaranthus rudis
Method in brief: as §1

[12] = Postemergence, 31 g ai/ha, scale 0 (no effect) to 100 (complete control)
[13] = Postemergence, 62 g ai/ha, scale 0 to 100 (0 no effect, 100 complete control)
[14] = Postemergence, 125 g ai/ha, scale 0 to 100 (0 no effect, 100 complete control)
[15] = Postemergence, 250 g ai/ha, scale 0 to 100 (0 no effect, 100 complete control)
[16] = Preemergence, 62 g ai/ha, scale 0 to 100
[17] = Preemergence, 125 g ai/ha, scale 0 to 100 (0 no effect, 100 complete control)
[18] = Postemergence, 31 g ai/ha, scale 0 to 100 (0 no effect, 100 complete control)
[19] = Postemergence, 62 g ai/ha, scale 0 (no effect) to 100 (complete control)
[20] = Preemergence, 31 g ai/ha, scale 0 to 100, 0 is no effect and 100 is complete control
[21] = Preemergence, 62 g ai/ha, scale 0 to 100 (0 no effect, 100 complete control)

O=C1NCC(c2ccc(Cl)c(F)c2)C1C(=O)Nc1cccc(F)c1F (stereo not shown) [Compound 52]
Plant response rating, Ragweed [1, 12]: 10 | Plant response rating, Ragweed [1, 13]: 10 | Plant response rating, Ragweed [1, 14]: 50 | Plant response rating, Ragweed [1, 15]: 55 | Plant response rating, Ragweed [1, 16]: 0 | Plant response rating, Ragweed [1, 17]: 0 | Plant response rating, Morningglory [2, 12]: 5 | Plant response rating, Morningglory [2, 13]: 10 | Plant response rating, Morningglory [2, 14]: 10 | Plant response rating, Morningglory [2, 15]: 30 | Plant response rating, Morningglory [2, 16]: 0 | Plant response rating, Morningglory [2, 17]: 0 | Plant response rating, Corn ([3]; Postemergence, 125 g ai/ha, 0 to 100 scale, 0 no effect, 100 complete control): 0 | Plant response rating, Corn ([3]; Postemergence, 500 g ai/ha, 0 to 100 scale (0 no effect, 100 complete control)): 30 | Corn plant response rating ([3]; Preemergence, 125 g ai/ha, visual rating on 0 to 100 scale (0 no effect, 100 complete control)): 0 | Plant response rating, Corn ([3]; preemergence, 500 g ai/ha, 0 to 100 scale): 0 | Plant response rating, Oat, Wild [4, 12]: 0 | Plant response rating, Oat, Wild [4, 13]: 0 | Plant response rating, Oat, Wild [4, 14]: 0 | Plant response rating, Oat, Wild [4, 15]: 0 | Plant response rating, Oat, Wild [4, 16]: 0 | Plant response rating, Oat, Wild [4, 17]: 0 | Plant response rating, Lambsquarters [5, 13]: 10 | Plant response rating, Lambsquarters [5, 14]: 40 | Plant response rating, Lambsquarters [5, 15]: 40 | Plant response rating, Lambsquarters [5, 16]: 40 | Plant response rating, Lambsquarters [5, 17]: 70 | Plant response rating, Sedge, Umbrella [6]: 85 | Plant response rating, Johnsongrass [7, 12]: 0 | Plant response rating, Johnsongrass [7, 13]: 0 | Plant response rating, Johnsongrass [7, 14]: 0 | Plant response rating, Johnsongrass [7, 15]: 0 | Plant response rating, Johnsongrass [7, 16]: 0 | Plant response rating, Johnsongrass [7, 17]: 10 | Plant response rating, Soybean [8, 12]: 0 | Plant response rating, Soybean [8, 13]: 0 | Plant response rating, Soybean [8, 14]: 5 | Plant response rating, Soybean [8, 15]: 5 | Plant response rating, Soybean [8, 16]: 10 | Plant response rating, Soybean [8, 17]: 15 | Plant response rating, Rice [9]: 25

O=C1NC[C@H](c2cccc(C(F)(F)F)c2)[C@H]1C(=O)Nc1cccc(F)c1F [Compound 206]
Plant response rating, Barnyardgrass [10, 18]: 25 | Plant response rating, Barnyardgrass [10, 19]: 40 | Plant response rating, Barnyardgrass [10, 14]: 80 | Plant response rating, Barnyardgrass [10, 15]: 80 | Barnyardgrass plant response rating [10, 20]: 90 | Plant response rating, Barnyardgrass [10, 16]: 90 | Plant response rating, Barnyardgrass [10, 17]: 95 | Plant response rating (scale of 0 to 100; 0 is no effect, 100 is complete control), Barnyardgrass ([10]; Preemergence, 250 g ai/ha): 95 | Plant response rating, Ragweed [1, 18]: 5 | Plant response rating, Ragweed [1, 19]: 0 | Plant response rating, Ragweed [1, 14]: 25 | Plant response rating, Ragweed [1, 15]: 5 | Ragweed plant response rating [1, 20]: 80 | Ragweed plant response rating [1, 21]: 10 | Plant response rating, Ragweed [1, 17]: 70 | Plant response rating (scale of 0 to 100), Ragweed ([1]; Preemergence, 250 g ai/ha): 98 | Plant response rating, Morningglory [2, 18]: 20 | Plant response rating, Morningglory [2, 19]: 20 | Plant response rating, Morningglory [2, 14]: 35 | Plant response rating, Morningglory [2, 15]: 45 | Morningglory plant response rating [2, 20]: 0 | Morningglory plant response rating [2, 21]: 0 | Plant response rating, Morningglory [2, 17]: 0 | Plant response rating (scale of 0 to 100), Morningglory ([2]; Preemergence, 250 g ai/ha): 10 | Plant response rating, Corn ([3]; Postemergence, 125 g ai/ha, 0 to 100 scale, 0 is no effect, 100 is complete control): 60 | Corn plant response rating (0 to 100 scale, 0 is no effect, 100 is complete control) ([3]; Postemergence, 500 g ai/ha): 80 | Plant response rating, Oat, Wild [4, 18]: 0 | Plant response rating, Oat, Wild [4, 19]: 5 | Plant response rating, Oat, Wild [4, 14]: 45 | Plant response rating, Oat, Wild [4, 15]: 50 | Plant response rating, Lambsquarters [5, 18]: 50 | Plant response rating, Lambsquarters [5, 19]: 75 | Plant response rating, Lambsquarters [5, 14]: 10 | Plant response rating, Lambsquarters [5, 15]: 20 | Lambsquarters plant response rating [5, 20]: 75 | Lambsquarters plant response rating [5, 21]: 100 | Plant response rating, Lambsquarters [5, 17]: 100 | Plant response rating (scale of 0 to 100), Lambsquarters ([5]; Preemergence, 250 g ai/ha): 100 | Plant response rating, Johnsongrass [7, 18]: 0 | Plant response rating, Johnsongrass [7, 19]: 0 | Plant response rating, Johnsongrass [7, 14]: 0 | Plant response rating, Johnsongrass [7, 15]: 35 | Johnsongrass plant response rating [7, 20]: 25 | Johnsongrass plant response rating [7, 21]: 65 | Plant response rating, Johnsongrass [7, 17]: 85 | Plant response rating (scale of 0 to 100), Johnsongrass ([7]; Preemergence, 250 g ai/ha): 85 | Plant response rating, Waterhemp [11, 18]: 0 | Plant response rating, Waterhemp [11, 19]: 0 | Plant response rating, Waterhemp [11, 14]: 35 | Plant response rating, Waterhemp [11, 15]: 30 | Waterhemp plant response rating [11, 20]: 70 | Waterhemp plant response rating [11, 21]: 100 | Plant response rating, Waterhemp [11, 17]: 100 | Plant response rating (scale of 0 to 100), Waterhemp ([11]; Preemergence, 250 g ai/ha): 100 | Plant response rating, Soybean [8, 18]: 5 | Plant response rating, Soybean [8, 19]: 5 | Plant response rating, Soybean [8, 14]: 5 | Plant response rating, Soybean [8, 15]: 5 | Soybean plant response rating [8, 20]: 0 | Soybean plant response rating [8, 21]: 0 | Plant response rating, Soybean [8, 17]: 0 | Plant response rating (scale of 0 to 100), Soybean ([8]; Preemergence, 250 g ai/ha): 0

From patent US10294202B2, “Pyrrolidinones as herbicides” (FMC Corporation, priority 2013, dated 2019)
